Data set [1] in a line: Stability in Simulated Gastric Fluid (SGF). Format: in vitro ADME. Also noted: key: % parent compound remaining relative to 0-minute sample. The protocol: (§1) Simulated gastric fluid (SGF) and Simulated intestinal fluid (SIF) stability are in vitro metrics indicating the ability of a compound to pass through the gastrointestinal tract […] or completely digested. An undigested or nearly undigested compound will usually survive gut transit long enough to be absorbed into the systemic circulation. Greater than 50% remaining intact compound at 1 hour indicates a relatively stable molecule that will likely be absorbed in the gut.
(§2) For each test compound, samples at a final concentration of 2 μg/mL are prepared in respective blank simulated gastric fluid with pepsin (pH 1.2) and simulated intestinal fluid with pancreatin (pH 6.8). All samples are incubated at 37° C. on a 150-rpm orbital shaker, and an aliquot is removed at predetermined time points (0 to 60 minutes). Samples are precipitated with three volumes of acetonitrile containing propranolol as internal standard, and centrifuged for 10 min at 2,000 g before LC-MS/MS analysis of the supernatant solutions. Percent parent compound remaining is determined relative to 0-minute incubation samples. If a sufficient number of time points are available, the degradation half-life is calculated based on the natural log of % compound remaining vs. time plot.

Data set [2] is described as follows: Stability in Simulated Intestinal Fluid (SIF). Further details: key: % parent compound remaining relative to 0-minute sample. Type of data set: in vitro ADME. As to the method:
as §1, §2

A further data set is described as follows: Plasma Stability. Type of data set: in vitro ADME, human. As to the method: Plasma stability estimates the ability of a compound to remain intact in the blood. For prodrugs that are intended to be hydrolyzed by plasma enzymes a certain level of instability in plasma indicates the compound is probably breaking down to the parent drug. A stability range of 25-75% remaining parent compound after 1 hour in plasma indicates the compound is likely breaking down to the parent drug molecule and a patient will be exposed to this parent molecule.
Assessment of plasma stability was carried out by individual incubations of drug candidates in fresh human plasma at a concentration of 1 μM for 1 hour at 37° C. After which, the samples were de-proteinized by addition of 2 volumes of acetonitrile containing 0.1% formic acid and internal standard, vortex mixed for 2 minutes and centrifuged at 4,000 rpm for 10 minutes to pellet precipitated protein. The resulting supernatant containing the drug candidates was diluted 5-fold with water containing 0.1% formic acid and submitted to LCMS/MS analysis. All determinations were done in triplicate. Plasma stability was expressed as percent of control remaining.
See Pelletier et al. ACS Med. Chem. Lett. 2018, 9, 752-756.

[3] abbreviates: simulated gastric fluid, remaining at 1 h.
Where [4] appears, read: simulated intestinal fluid, remaining at 1 h.
The mark [5] stands for this setting: % remaining at 1 h, SGF with pepsin pH 1.2, 2 μg/mL, 37° C.
The mark [6] stands for this setting: % remaining at 1 h, SIF with pancreatin pH 6.8, 2 μg/mL, 37° C.
Setting [7] is: % remaining at 1 h, human plasma, 1 μM, 37° C.
Setting [8] is: % remaining at 1 h in simulated gastric fluid, the 15th table.
Setting [9] is: % remaining at 1 h in simulated intestinal fluid, the 15th table.
[10] abbreviates: % remaining at 1 h in human plasma, the 15th table.
Setting [11] is: simulated gastric fluid, at 1 h.
Where [12] appears, read: simulated intestinal fluid, at 1 h.
Where [13] appears, read: bare number, unit or time not given, the 15th table Examples 204-207.
Setting [14] is: bare number, unit or time not given.

Regarding `CC(C)OCCn1c(=S)[nH]c(=O)c2c1ccn2COC(=O)OCCOCCN.O=C(O)C(F)(F)F` [Example 354, trifluoroacetic acid 2-(2-aminoethoxy)ethyl {4-oxo-1-[2-(propan-2-yloxy)ethyl]-2-sulfanylidene-1H,2H,3H,4H,5H-pyrrolo[3,2-d]pyrimidin-5-yl}methyl carbonate], the SGF in data set [1] (setting [3]) is given as 99% remaining. In addition, in data set [2] (setting [4]), the SIF was 3% remaining. In the data set “Plasma Stability” (human plasma, remaining at 1 h), the “human Plasma stability” value is recorded as 1% remaining.

Consider “bis(trifluoroacetic acid) 5-{[2-({[(5-{[(2R)-2-amino-4-methylpentanoyl]oxy}penta-noyl)oxy]methyl}sulfanyl)-4-oxo-1-[2-(propan-2-yloxy)ethyl]-1H,4H,5H-pyrrolo[3,2-d]pyrimidin-5-yl]methoxy}-5-oxopentyl (2R)-2-amino-4-methylpentanoate [Example 351]”, for which, in data set [1] (setting [3]), the SGF is recorded as 69% remaining. Also, the SIF in data set [2] (setting [4]) is reported as 14% remaining. The “human Plasma stability” value in the data set “Plasma Stability” (human plasma, remaining at 1 h) was found to be 99% remaining.

`CC(C)OCCn1c(=S)[nH]c(=O)c2c1ccn2COC(=O)CCCCCCC(=O)OCn1ccc2c1c(=O)[nH]c(=S)n2CCOC(C)C` [Example 136, 1,8-Bis({4-oxo-1-[2-(propan-2-yloxy)ethyl]-2-sulfanylidene-1H,2H,3H,4H,5H-pyrrolo[3,2-d]pyrimidin-5-yl}methyl) octanedioate]: the SGF in data set [1] (setting [5]) was 77%. Also, the SIF in data set [2] (setting [6]) is given as 2%. The “human Plasma stability” value in the data set “Plasma Stability” (setting [7]) is reported as 2%.

On to `CC(C)OCCn1c(=S)[nH]c(=O)c2c1ccn2S(=O)(=O)c1ccccc1F` [Example 79, 5-(2-fluorobenzenesulfonyl)-1-[2-(propan-2-yloxy)ethyl]-2-sulfanylidene-1H,2H,3H,4H,5H-pyrrolo[3,2-d]pyrimidin-4-one], for which the SGF in data set [1] (setting [5]) is reported as 92%. The SIF in data set [2] (setting [6]) was 82%. Moreover, the “human Plasma stability” value in “Plasma Stability” (setting [7]) is 98%.

In the case of “({4-oxo-1-[2-(propan-2-yloxy)ethyl]-1H,4H,5H-pyrrolo[3,2-d]pyrimidin-2 yl}sulfanyl)methyl N-butylcarbamate [Example 185]”, the SGF in data set [1] (setting [8]) is recorded as 78% @ 1 h. For the same compound, the SIF in data set [2] (setting [9]) was 67% @ 1 h. In the data set “Plasma Stability” (setting [10]), the “human Plasma stability” value is recorded as 96% @ 1 h.

Take `CC(C)OCCn1c(=S)[nH]c(=O)c2c1ccn2COC(=O)N(C)c1ccccc1Cl` [Example 250]: the SGF in data set [1] (setting [11]) is reported as 99% remaining. Besides, the SIF in data set [2] (setting [12]) was 93% remaining. Further, the “human Plasma stability” value in “Plasma Stability” (human plasma, at 1 h) is reported as 100% remaining.

`CC(C)OCCn1c(SCOC(=O)Oc2ccccc2)nc(=O)c2[nH]ccc21` [Example 205]: the SGF in data set [1] (setting [13]) is 61. The SIF in data set [2] (setting [13]) is reported as 10. The “human Plasma stability” value in the data set “Plasma Stability” (setting [10]) turned out to be 2% remaining.

On to `Cc1cccc(N(C)C(=O)OCn2ccc3c2c(=O)[nH]c(=S)n3CCOC(C)C)c1` [Example 252], for which the SGF in data set [1] (setting [11]) is on record as 100% remaining. For the same compound, the SIF in data set [2] (setting [12]) is recorded as 80% remaining. Further, the “human Plasma stability” value in the data set “Plasma Stability” (human plasma, at 1 h) was found to be 100% remaining.

With “N-[2-(2-aminoethoxy)ethyl]-4-oxo-1-[2-(propan-2-yloxy)ethyl]-2-sulfanylidene-1H, 2H,3H,4H,5H-pyrrolo[3,2-d]pyrimidine-5-carboxamide; trifluoroacetic acid [Example 376]”, the SGF in data set [1] (setting [3]) is recorded as 98% remaining. For the same compound, in data set [2] (setting [4]), the SIF is reported as 99% remaining. The “human Plasma stability” value in “Plasma Stability” (human plasma, remaining at 1 h) is 95% remaining.

With `CC(C)OCCn1c(=S)[nH]c(=O)c2c1ccn2C[C@]1(C(=O)O)CCCN1C(=O)OC(C)(C)C.O=C(O)C(F)(F)F` [Example 2, trifluoroacetic acid 1-tert-butyl 2-{4-oxo-1-[2-(propan-2-yloxy)ethyl]-2-sulfanylidene-1H,2H,3H,4H,5H-pyrrolo [3,2-d]pyrimidin-5-yl}methyl(2S)-pyrrolidine-1,2-dicarboxylate], the “human Plasma stability” value in “Plasma Stability” (setting [7]) is listed as 73%.

As to `CC(C)OCCn1c(=S)[nH]c(=O)c2c1ccn2COC(=O)CCCCOC(=O)CNC(=O)OC(C)(C)C` [Example 328, {4-oxo-1-[2-(propan-2-yloxy)ethyl]-2-sulfanylidene-1H,2H,3H,4H,5H-pyrrolo[3,2-d]pyrimidin-5-yl}methyl 5-[(2-{[(tert-butoxy)carbonyl]amino}acetyl)oxy] pentanoate], the SGF in data set [1] (% remaining @ 1 h) was 97%@ 1 h. For the same compound, the SIF in data set [2] (% remaining @ 1 h) is reported as 6%@ 1 h. In addition, in “Plasma Stability” (% remaining @ 1 h), the “human Plasma stability” value came out at 11%@ 1 h.

`CC(C)OCCn1c(=S)n(COC(=O)CCCCOC(=O)[C@@H](N)C(C)C)c(=O)c2c1ccn2COC(=O)CCCCOC(=O)[C@@H](N)C(C)C.O=C(O)C(F)(F)F.O=C(O)C(F)(F)F` [Example 337, bis(trifluoroacetic acid) (3-{[(5-{[(2S)-2-amino-3-methylbutanoyl]oxy}pentanoyl)oxy]methyl}-4-oxo-1-[2-(propan-2-yloxy)ethyl]-2-sulfanylidene-1H,2H,3H,4H,5H-pyrrolo[3,2-d]pyrimidin-5-yl)methyl 5-{[(2S)-2-amino-3-methylbutanoyl]oxy}pentanoate]: the SGF in data set [1] (setting [14]) is reported as 98. For the same compound, the SIF in data set [2] (setting [14]) is on record as 30. In “Plasma Stability” (% remaining @ 1 h), the “human Plasma stability” value was 60% remaining.

For `CCCNC(=O)OCSc1nc(=O)c2c(ccn2C(=O)NCCC)n1CCOC(C)C` [Example 184], the SGF in data set [1] (setting [8]) is given as 99% @ 1 h. The SIF in data set [2] (setting [9]) was 86% @ 1 h. Moreover, in the data set “Plasma Stability” (setting [10]), the “human Plasma stability” value is 95% @ 1 h.

`CC(C)OCCn1c2nc(=O)c3c1ccn3COC(=O)CCCCCCC(=O)OCS2` [Example 135, 22-[2-(Propan-2-yloxy)ethyl]-6,15-dioxa-17-thia-4,19,22-triazatricyclo[16.3.1.0^{4,21}]docosa-1(21),2,18-triene-7,14,20-trione]: the SGF in data set [1] (setting [5]) was 86%. Besides, the SIF in data set [2] (setting [6]) is on record as 67%. For the same compound, in the data set “Plasma Stability” (setting [7]), the “human Plasma stability” value is given as 67%.

Consider `CC(C)OCCn1c(=S)[nH]c(=O)c2c1ccn2COC(=O)CCCCCCC(=O)OCCl` [Example 137, 1-Chloromethyl 8-{4-oxo-1-[2-(propan-2-yloxy)ethyl]-2-sulfanylidene-1H,2H,3H,4H,5H-pyrrolo[3,2-d]pyrimidin-5-yl}methyl octanedioate], for which the SGF in data set [1] (setting [5]) was 74%. Also, the SIF in data set [2] (setting [6]) was 56%. Moreover, the “human Plasma stability” value in the data set “Plasma Stability” (setting [7]) amounted to 1%.

On to “{4-oxo-1-[2-(propan-2-yloxy)ethyl]-2-sulfanylidene-1H,2H,3H,4H,5H-pyrrolo[3,2-d]pyrimidin-5-yl}methyl (2R)-1-[2-(2-{[(tert-butoxy)carbonyl]amino}acetamido) acetyl]pyrrolidine-2-carboxylate [Example 405]”, for which, in data set [1] (% remaining after 1 h in simulated gastric fluid), the SGF was 83% remaining. Moreover, the SIF in data set [2] (% remaining after 1 h in simulated intestinal fluid) was 81% remaining. The “human Plasma stability” value in the data set “Plasma Stability” (% remaining after 1 h in human plasma) was determined as 1% remaining.

As for `CC(C)OCCn1c(=S)[nH]c(=O)c2c1ccn2COC(=O)CCCCOC(=O)[C@H](N)C(C)C.O=C(O)C(F)(F)F` [Example 338, trifluoroacetic acid {4-oxo-1-[2-(propan-2-yloxy)ethyl]-2-sulfanylidene-1H,2H,3H,4H,5H-pyrrolo[3,2-d]pyrimidin-5-yl}methyl 5-{[(2R)-2-amino-3-methylbutanoyl]oxy}pentanoate], the SGF in data set [1] (setting [14]) is 99. Further, the SIF in data set [2] (setting [14]) is listed as 3. The “human Plasma stability” value in “Plasma Stability” (% remaining @ 1 h) was 4% remaining.

Turning to `CC(C)OCCn1c(=S)n2c(=O)c3c1ccn3COC(=O)CCCCCCC(=O)OC2` [Example 134, 16-[2-(Propan-2-yloxy)ethyl]-15-sulfanylidene-3,12-dioxa-1,14,16-triazatricyclo[12.5.2.0^{17,20}]henicosa-17(20),18-diene-4,11,21-trione], in data set [1] (setting [5]), the SGF is on record as 99%. The SIF in data set [2] (setting [6]) is on record as 1%. In addition, in the data set “Plasma Stability” (setting [7]), the “human Plasma stability” value turned out to be 1%.

Consider `CC(C)OCCn1c(=S)[nH]c(=O)c2c1ccn2S(=O)(=O)c1ccccc1` [Example 78, 5-(benzenesulfonyl)-1-[2-(propan-2-yloxy)ethyl]-2-sulfanylidene-1H,2H,3H,4H,5H-pyrrolo[3,2-d]pyrimidin-4-one], for which, in data set [1] (setting [5]), the SGF was 100%. Further, the SIF in data set [2] (setting [6]) was 80%. The “human Plasma stability” value in “Plasma Stability” (setting [7]) is recorded as 96%.

The values above are taken from patent US20240067651A1 (Biohaven Therapeutics Ltd., priority 2019, published 2024).
